In US11421204B2, “Method of removing pluripotent cells from culture” (REPROCELL INCORPORATED, priority 2015, dated 2022):
“Also recorded” adds a separate entry of the source. Each block holds one compound with its values, some of them ahead of it.

Key:
[1] = system: iPS cell (cell line 201B7); assay: Comparison of effects by wavelength of photoirradiation of ALA-PDT for iPS cell; assay type: cell-based, human; conditions: ALA 100 or 1000 micro-M for 4 hours, red or blue LED 10 minutes, 24 hours afterward
Description: Then, the effect by the difference of the wavelength in the photoirradiation of ALA-PDT for a human iPS cell was compared.
Then, the cultured iPS cell was irradiated with red LED (wavelength of 635 nm) or blue LED (wavelength of 405 nm) for 10 minutes, and the cell form was observed 24 hours afterward.
Culture conditions were: used cell line: 201B7 and used culture-medium: Primate ES Cell Medium.

[2] = system: iPS cell (cell line 201B7); assay: Evaluation of effects of ALA and/or SFC for iPS cell without photoirradiation (cell form); assay type: cell-based, human; conditions: ALA 1000 micro-M; observed 0, 4, 24, 48 hours after addition; no PDT
Excerpt: As a pluripotent stem cell line, a human iPS cell line (iPSC) established at ReproCELL Inc. and subcultured 50 times was used. For on-feeder cultivation, the cell line of the pluripotent stem cell was maintained on mouse embryonic fibroblast (MEF) feeder cell (RCHEFC003, ReproCELL Inc.) processed by mitomycin C in a 60-mm polystyrene plate (dish) coated by ReproCoat (ReproCELL Inc.) with culture medium for pluripotent stem cells (Primate ES cell medium, RCHEMD001, ReproCELL Inc.) as like the conventional technique. ReproCoat was coated by using on a plate at the concentration of 0.2 micro-g/cm^2 and allowing to keep it at 4 degree-Celsius, overnight.
34 mg of ALA hydrochloride (M. W.=167.6, SBI Pharmaceuticals Co., Ltd.) was weighed, and 1000 micro-L of PBS (−) (Wako Pure Chemical Industries Ltd.) were added. Thereby, 200 mM ALA solution was prepared. The solution of the prepared ALA hydrochloride (hereinafter, it is only called as “ALA solution”) was stored on a freezer at −20 degree-C until use.

[3] = system: human iPS cell; assay: Comparison of effects by ALA concentration of ALA-PDT for iPS cell (CCK8); assay type: cell-based
Description: Then, in ALA-PDT for the human iPS cell, the effects for changing the concentration of ALA were compared.
(§1) The iPS cell performed the passage process as well as an above-mentioned process was incubated for 2 to 4 minutes by using CTK (collagenase trypsin KSR) in 37 degree-C and then separated by pipetting.

[4] = system: iPS cell (cell line 201B7); assay: Evaluation of effects of ALA-PDT for iPS cell (cell form, ALP expression); assay type: cell-based, human; conditions: ALA 1000 micro-M and/or SFC 500 micro-M for 48 hours, blue LED 10 minutes, 24 hours afterward; Blue Alkaline Phosphatase Substrate Kit III
[5] = system: RC010 (iPS cell line); assay: ALA-PDT on iPS cell line RC010, cell survival by CCK8 (Example 2); assay type: cell-based, human; conditions: ALA hydrochloride 125-1000 micro-M, 4 or 24 hours, red LED 10 minutes, cell wraps r11-r13: SURVIVAL/PROLIFERATION SUPPRESSION
Description: (§2) As pluripotent stem cell lines, separately, for 201B7 cell line, which is equivalent as above-mentioned Example 1, and for RC001 and RC010 (ReproCELL Inc.), after maintaining as like above-mentioned Example 1, evaluations of the ALA effects were performed.
(§3) Then, each of them was cultivated with culture medium added ALA hydrochloride having concentration (0, 125, 250, 500, 1000 micro-M), respectively.

[6] = system: RC001 (iPS cell line); assay: ALA-PDT on iPS cell line RC001, cell survival by CCK8 (Example 2); assay type: cell-based, human; conditions: ALA hydrochloride 125-1000 micro-M, 4 or 24 hours, red LED 10 minutes, cell wraps r8-r10: SURVIVAL/PROLIFERATION SUPPRESSION
Description: as §2, §3

[7] = system: normal human dermal fibroblast (HDF); assay: Comparison of effects by ALA concentration of ALA-PDT for HDF (CCK8); assay type: cell-based; conditions: ALA 0-1000 micro-M, 4 hours, red LED 10 minutes, CCK8 24 hours afterward
Description: Also, the commercial normal human dermal fibroblast (CA106K05a, Cell Applications Inc., HDF) was used for comparative example(s).
as §1
About a normal human dermal fibroblast (HDF), based on the equivalent conditions as above-mentioned “comparison of effects by ALA hydrochloride concentration and photoirradiation of ALA-PDT for iPS cell”, the effects of the ALA concentration and ALA-PDT were compared.

[8] = system: 201B7 cell line (iPS cell); assay: ALA-PDT on iPS cell line 201B7, cell survival by CCK8 (Example 2); conditions: for rate of cell survival as compared with the control: 201B7
[9] = system: hepatic cell originated from human iPS cell; assay: Evaluation of effect of ALA-PDT for hepatic cells of iPS cell origin; assay type: cell-based
Description: The effect by ALA-PDT was evaluated for a hepatic cell originated from human iPS cell equivalent to the above-mentioned Example 1. At this example, the culture condition was plating 500,000 cells per well in a 24-well plate, then each concentration (0, 250, 500 micro-M) of ALA hydrochloride was added to the cell on the seventh day, photoirradiation was performed for 10 minutes by red LED 24 hours afterward, then form observation was carried out on the next day and after. The irradiation power of red LED was the same as that of above-mentioned case.

[10] = system: neuron performed differentiation induction from the human iPS cell (ReproNeuro); assay: Evaluation of effects of ALA-PDT for neuron originated from iPS cell; assay type: cell-based; conditions: red LED 10 minutes
Description: Then, the effects by ALA-PDT for the neuron performed differentiation induction from the human iPS cell (neuron originated from iPS cell) were evaluated. The used neuron was ReproNeuro. […] After that, the cell form was observed. Then, the cultured neuron was irradiated with red LED (wavelength of 635 nm) for 10 minutes, and the cell form was observed after 12-hour progresses (overnight). Then, it was exchanged the culture medium, which ALA was not included, and the cell form was observed after cultivating with exchanging the culture media for seven days.

[11] = 250 micro-M ALA hydrochloride for 24 hours, red LED 10 minutes

- protection of hepatic cells from ALA-PDT ([9]; 250 micro-M ALA, preliminary experiment): it was protected
Compound: NCC(=O)CCC(=O)O [ALA, delta-aminolevulinic acid]
- expression of ALP (undifferentiated state) after ALA-PDT, red vs blue LED [1]: it became impossible to maintain the undifferentiated state
- influence on the iPS cell (cell form, undifferentiated form) without photoirradiation [2]: influence on the iPS cell was not observed
- cell death of the iPS cell by ALA-PDT ([3]; ALA concentration greater than or equal to 250 micro-M, 4 hours after addition red LED 10 minutes, CCK8 24 hours afterward): ≥ 60%
- cell death of iPS cell by ALA-PDT ([3]; ALA concentration greater than or equal to about 100 micro-M, other experiment (not shown)): ≥ 10%
- undifferentiated state by expression of ALP after ALA-PDT [4]: ALP became negative; also recorded: an undifferentiated iPS cell was no longer observed
- EFFECT BY ALA [5]: Survival and proliferation for each cell line were suppressed
- EFFECT BY ALA [6]: Survival and proliferation for each cell line were suppressed
- induction of cell death of HDF by ALA-PDT (CCK8) [7]: induction of the cell death by ALA-PDT was not observed
- rate of cell survival as compared with the control ([8]; 250 micro-M ALA, after-addition time 4 hours, red LED 10 minutes, CCK8): 65%
- rate of cell survival as compared with the control ([8]; after-addition time 24 hours, red LED 10 minutes, CCK8): 7%
- EFFECT BY ALA ([8]; cell line 201B7, ALA hydrochloride 125-1000 micro-M, 4 or 24 hours, red LED 10 minutes, CCK8, cell wraps r5-r7: SURVIVAL/PROLIFERATION SUPPRESSION): Survival and proliferation for each cell line were suppressed
- rate of cell survival with after-addition time longer than 24 hours, compared with 24 hours ([8]; preliminary experiment): there is no change the rate of cell survival
- form observation of hepatic cells 24 hours after LED irradiation [9, 11]: the cell with clear cobblestone morphology and nucleus remained
- form observation of hepatic cells 48 hours after LED irradiation [9, 11]: the cell with cobblestone morphology and nucleus continued surviving
- survival of hepatic cells after ALA-PDT ([9]; ALA hydrochloride 250 and 500 micro-M, red LED 10 minutes, 24 and 60 hours after irradiation): survived under the various conditions of ALA-PDT were present
- state of survived hepatic cells, 250 micro-M versus 500 micro-M (visual inspection) ([9]; ALA hydrochloride 250 vs 500 micro-M, red LED 10 minutes): the state of the survived cells under the condition of 250 micro-M were better than that of 500 micro-M
- survival of neuron after ALA-PDT ([10]; ALA 250, 500 micro-M for 4 hours, cultivation continued for seven days): continued surviving without extinction and recovered as like the condition before ALA addition
- cell adhesion and neural spine seven days after ALA-PDT ([10]; seven days after adding 250 micro-M, 500 micro-M ALA): cell adhesion could be confirmed, and the neural spine was elongating in all of them

Compound: sodium ferrous citrate [SFC]
- undifferentiated state by expression of ALP after ALA-PDT [4]: maintaining the undifferentiated-like state
